Consider 2 compounds from paper PMC9630261 (2022).

Assay in all cases: fluorescence quenching titration of drug with DNA
The test system of assay [1] is Q0 (DNA, aptamer) GGCGACAAGGAAAATCCTTCAACGAAGTGGGTCGCC
Conditions: Na+ (50 mM NaH2PO4, adjusted with NaOH); pH 7.00, 20 °C; KD corrected for stoichiometry (per site).

The test system of assay [2] is Q1 (DNA, aptamer) GACAAGGAAAATCCTTCAACGAAGTGGGTCG
Conditions: Na+ (50 mM NaH2PO4, adjusted with NaOH); pH 7.00, 20 °C; KD corrected for stoichiometry (per site).

For assay [3], the system named is Q2 (DNA, aptamer) GGCGACAAGGAAAATCCTTTCACGAAGTGGGTCGCCG
Conditions: Na+ (50 mM NaH2PO4, adjusted with NaOH); pH 7.00, 20 °C; KD corrected for stoichiometry (per site).

In assay [4] the test system is D0 (DNA, duplex) CGCGCGCGCGCG
The following applies: Na+ (50 mM Na2HPO4, 100 mM NaCl), pH 7.00, 20 °C, KD corrected for stoichiometry (per site).

Assay [5] deals with D1 (same sequence as G-quad) (DNA, G4) GGGCTTTTGGGC
The following applies: K+ (50 mM K2HPO4, 100 mM KCl per Methods; Table S2 says phosphate sodium), pH 7.00, 20 °C, KD corrected for stoichiometry (per site).

Assay [6] has as its system D2 (DNA, G4) GGTTGGTGTGGTTGG
The following applies: K+ (50 mM K2HPO4, 100 mM KCl per Methods; Table S2 says phosphate sodium), pH 7.00, 20 °C, KD corrected for stoichiometry (per site).

Assay [7] has as its system D0-thioate (D0-PS) (DNA, duplex, phosphorothioate at all 11 linkages) CGCGCGCGCGCG
The following applies: in serum (mouse serum), 37 °C, KD corrected for stoichiometry (per site).

The test system of assay [8] is D0-L-thioate (DNA, duplex, phosphorothioate at all 23 linkages) CGCGCGCGCGCGCGCGCGCGCGCG
Conditions: in serum (mouse serum), 37 °C, KD corrected for stoichiometry (per site).

For assay [9], the system named is D0-L-thioate-C16 (DNA, duplex, phosphorothioate at all 23 linkages) CGCGCGCGCGCGCGCGCGCGCGCG
The following applies: in serum (mouse serum), 37 °C, KD corrected for stoichiometry (per site).

SMILES strings stand for the structures.

The term KD denotes the free concentration of one partner at which half of the binding sites on the other are occupied at equilibrium, for simple one-to-one binding. A low value points to a tighter complex. `C=C[C@H]1CN2CC[C@H]1C[C@H]2[C@H](O)c1ccnc2ccc(OC)cc12`: the KD in assay [1] was found to be 89.7 ± 10 nM; in [2], 198 ± 6 nM; in [3], 2740 ± 200 nM.

As for `COc1cccc2c1C(=O)c1c(O)c3c(c(O)c1C2=O)C[C@@](O)(C(=O)CO)C[C@@H]3O[C@H]1C[C@H](N)[C@H](O)[C@H](C)O1`, the KD in [4] came out at 133 ± 20 nM; in assay [5], 703 ± 80 nM; in assay [6] it was 3760 ± 300 nM; in assay [7], 1020 ± 20 nM; in assay [8], 592 ± 100 nM; in [9], 578 ± 100 nM.
